In US8293488B2, “Method for screening neurogenic agents” (Neuralstem, Inc., priority 2002, dated 2012):

Key:
Format in all cases: cell-based
[1] = test system: human hippocampal multipotent stem/progenitor cells; assay: Proliferation by Alamar Blue staining of live cells after 7 days of compound treatment; conditions: 7 days compound treatment, relative to vehicle control
Procedure: FIG. 4. Examples of proliferation profile of compounds selected from primary screening. Proliferation was measured after compound treatment for 7 days by Alamar Blue staining of live cells per well. Shown are relative values over the vehicle control.
(§1) (1) Undifferentiated human neural stem/progenitor cells were harvested by enzyme treatment.
(§2) (2) The collected cells were seeded at 40,000 cells per well of 96-well plates pre-coated with extracellular matrix proteins (e.g., Biocoat PDL, Fisher). The seeding media is a standard serum-free, growth factor-free, basal media that supports healthy neuronal/glial survival, such as N2 without phenol red.
(§3) (3) Test agents at appropriate concentrations were added to each well on Day 0.
(4) The assay plates were incubated for 7 days, with 50% media change at every other day. On Day 2, 4, and 6 of post-plating, additional increment of the screening agents at appropriate concentrations were added to each well. […]
(6) The fluorescence of the oxidized dye in each well was read by a fluorescent plate reader with the following settings:
Excitation 530 nm, emission 590 nm, cutoff 570 nm The fluorescence level is proportional to the number of respiring cells in the culture and is a measure of a proliferative activity of a test agent (FIG. 2).

[2] = test system: differentiating human hippocampal progenitor cells; assay: Dose-response of neuron number (TuJ1 positive cells, automated cell counter); conditions: 7 days, 100 picaM to 100 microM
Procedure: FIG. 6. Examples of neurogenesis profile of compounds selected from primary screening. After 7 days of compound treatment, the cells were stained with TuJ1 for neurons. The absolute number of TuJ1+ neurons per area was quantified and expressed as a relative value to the vehicle treated control.
FIG. 7. Dose-dependent increase in neuron number. Differentiating human hippocampal progenitor cells were treated for 7 days with varying concentrations of “primary hits”. Subsequently, the cells were fixed, stained with TuJ1, and positive cells were quantified by an automated cell counter. Shown are the number of neurons after each treatment normalized against the vehicle control (0 microM=1.0).
(§4) Linearity of dose-response and in vitro neurotoxicity are used to further filter down desired compounds from the primary screen. The dose-response curve measures neurogenesis over a concentration range of 100 picaM to 100 microM. The rationale for this is to eliminate early on those compounds with pronounced toxicity and those without a dose-dependent effect on neurogenesis. […] Table II contains the summary of EC50 of each compound tested.

[3] = test system: differentiating human hippocampal progenitor cells; assay: In vitro neurotoxicity from dose-response curves; conditions: dose-response up to 100 microM
Description: as §4

[4] = test system: human hippocampal progenitor cells; assay: In vitro neurogenesis assay (primary screen, positive control selection); conditions: for effective in the neurogenesis assay: growth factors 20 ng/ml, 7 days
Procedure: FIG. 3A. Influence of known growth factors on proliferation and neurogenesis relative to control. Hippocampal progenitor cells were treated for seven days with differentiation media (without mitogen) in the presence or absence of 20 ng/ml of growth factor dosed every other day. Plates were treated with Alamar Blue as described in Methods, then fixed and stained with antibody (TuJ1) against type III beta-tubulin (neuronal marker). The 96-well plate was read in a fluorescent plate reader. Bars represent the Mean+SD from 4 wells per treatment.
as §1, §2, §3
(4) The assay plates were incubated for 7 days, with 50% media change at every other day. On Day 2, 4, and 6 of post-plating, additional increment of the screening agents at appropriate concentrations were added to each well.
(7) After the alamar blue assay, the cells were fixed and stained with antibodies against neuron-specific antigens according to standard procedures. Typical antigens effective were Type III-beta tubulin and MAP2c.
(§5) (9) As a preliminary detection of positive activities, the overall immunostaining intensity in each well was read by a fluorescence plate reader. For the positive hits, more quantitative analysis was carried out by automated morphometric counting of individual cells.
Thus, the assay can discriminate test agents for selectively having a neurogenic activity. The positive control utilized is leukemia inhibitory factor (LIF), a cytokine growth factor, at 20 ng/ml. The selection of LIF as the positive control is based on its properties to increase by 2-3 fold the number of neurons and glia. This effect validates both the neural stem cell system, in which, should a compound be effective in neurogenesis, the cells respond appropriately by enhanced differentiation and/or mitosis, and the assay method in which such cellular responses can be measured reproducibly and quantifiably.
5,628 synthetic compounds of the type Fused Imidazoles, Aminopyrimidines, Nicotinamides, Aminomethyl Phenoxypiperidines and Aryloxypiperidines are evaluated for their effect on neurogenesis according the assay method described above. […] Those were re-analyzed by quantitative neuron counting. […] The significance level was empirically set at an activity above 30% change over the vehicle control for proliferation and above 10% change for neurogenesis.

[5] = test system: human hippocampal multipotent stem/progenitor cells; assay: Neurogenesis: ratio of TuJ1 stained neurons to total nuclei after 7 days; conditions: 20 ng/ml, differentiation media without mitogen, manual cell counting, controls 48.5+6.3%
Procedure: FIG. 3B. LIF effects on hippocampal cell proliferation and neurogenesis by manual cell counting. Hippocampal progenitor cells were treated for seven days with differentiation media (without mitogen) in the presence or absence of 20 ng/ml LIF. Three fields were analyzed per well for total number of cells (DAPI positive nuclei) and for total number of neurons (TUJI positive cells). Bars represent the Mean+SD from 4 wells per treatment. The percentage of neurons calculated for each treatment are as follows: 48.5+6.3% for controls and 53.6+1.15 for LIF. The non-TUJ1 positive cells are mainly astrocytic (GFAP+).
FIG. 5. Example of neurogenesis profile of compounds selected from primary screening. After 7 days of compound treatment, the ratio of neuron number (TuJ1 stained) to the total nuclei number (Hoechst stained) was determined. Shown are the relative ratio of neuron:total cells for each compound over the vehicle control in percentage. […]
(8) The total cell number in each well was quantified by staining the cultures with a nuclear dye such as DAPI or Hoechst according to standard procedures.
as §5

For `CCCCNc1c(C2CCN(C(=O)CN(CC(C)C)S(C)(=O)=O)CC2)nc2cnccn12` [NSI-106], the “Proliferation (% of Control)” value [1] was 211 ± 48 % of Control, the EC50 [2] was 0.1 nM and the “Other Characterization of Toxicity” value [3] was “No Toxicity”.

With `NC(=O)c1cnc(NCc2ccc(Cl)cc2)nc1NCC1CCCCC1` [NSI-144] the “Proliferation (% of Control)” value [1] was 149 ± 15 % of Control, the EC50 [2] was 1 nM and the “Other Characterization of Toxicity” value [3] was “No Toxicity”.

`COc1ccc(C2CNC(=O)C2)cc1OC1CCCC1` (stereo not shown) [Rolipram, rolipram, reference compound] was tested, and the “effective in the neurogenesis assay” value [4] was “effective”.

leukemia inhibitory factor [LIF] was tested, and the “percentage of neurons (TUJ1 positive cells of DAPI positive nuclei)” value [5] was 53.6+1.15, the “increase in the number of neurons and glia” value ([4]; 20 ng/ml) was 2-3 fold and the “effective in the neurogenesis assay” value [4] was “effective”.

B1: brain-derived neurotrophic factor (protein, UniProt P23560 19-247, looked up)
Neurotrophic factor BDNF …: APMKEANIRGQGGLAYPGVRTHGTLESVNGPKAGSRGLTSLADTFEHVIEELLDEDQKVRPNEENNKDADLYTSRVMLSSQVPLEPPLLFLLEEYKNYLDAANMSMRVRRHSDPARRGELSVCDSISEWVTAADKKTAVDMSGGTVTVLEKVPVSKGQLKQYFYETKCNPMGYTKEGCRGIDKRHWNSQCRTTQSYVRALTMDSKKRIGWRFIRIDTSCVCTLTIKRGR
B1 was tested, and the “effective in the neurogenesis assay” value [4] was “Only one (leukemia inhibitory factor) was effective”.

B2: glia-derived neurotrophic factor (protein, UniProt P39905 78-211, looked up)
Glial cell line-derived …: SPDKQMAVLPRRERNRQAAAANPENSRGKGRRGQRGKNRGCVLTAIHLNVTDLGLGYETKEELIFRYCSGSCDAAETTYDKILKNLSRNRRLVSDKVGQACCRPIAFDDDLSFLDDNLVYHILRKHSAKRCGCI
For B2, the “effective in the neurogenesis assay” value [4] was “Only one (leukemia inhibitory factor) was effective”.

B3: neurotrophic factor-3 (protein, UniProt P20783 139-257, looked up)
Neurotrophin-3: YAEHKSHRGEYSVCDSESLWVTDKSSAIDIRGHQVTVLGEIKTGNSPVKQYFYETRCKEARPVKNGCRGIDDKHWNSQCKTSQTYVRALTSENNKLVGWRWIRIDTSCVCALSRKIGRT
In the case of B3, the “effective in the neurogenesis assay” value [4] is reported as “Only one (leukemia inhibitory factor) was effective”.
